Laboratory results from publication PMC12005787, “Synthetic Lethality of SHP2 and XIAP Suppresses Proliferation and Metastasis in KRAS‐mutant Nonsmall Cell Lung Cancer” (Advanced Science, 2025).

Tests used:
[1] = test system: SHP2 and ERK phosphorylation in KRAS, HRAS and NRAS‐mutant cells; assay: SHP2 and ERK phosphorylation in RAS-mutant cells (western blotting); type: cell-based; conditions: KRAS G12C, G12S, G13D
Protocol: Transwell, and the subsequent experiments were performed as described in Cell migration […]
After given treatment, cells were lysed by ice bath with radio-immunoprecipitation assay (RIPA) buffer containing 1% phenylmethylsulphonyl fluoride (PMSF), and the supernatant was collected by centrifugation, and the protein concentration was subsequently determined using a BCA Protein Assay Kit. Depending on the molecular weight of the proteins, different concentrations of sodium dodecyl-sulfate polyacrylamide gel electrophoresis (SDS-PAGE) separator gels were prepared for protein electrophoresis. Equal amounts of proteins were sampled and subjected to SDS-PAGE gel electrophoresis; at the end of electrophoresis, the proteins were transferred to nitrocellulose (NC) membranes. The NC membrane was blocked with 5% skim milk and covered with a specific primary antibody overnight at 4 °C, in which the primary antibody was diluted at a ratio of 1:500–1:5000. The NC membrane was […]

His‐ΔSHP2 = target: T1, His‐ΔSHP2 (Homo sapiens, UniProt Q06124); assay: Reversibility of embelin-SHP2 binding (dialysis); type: biochemical
T1 construct: His‐ΔSHP2, encompassing the peptide from amino acids 205–593 retaining PTP activity; His; made in house; host or cells: E. coli
T1 sequence (Q06124 205-593): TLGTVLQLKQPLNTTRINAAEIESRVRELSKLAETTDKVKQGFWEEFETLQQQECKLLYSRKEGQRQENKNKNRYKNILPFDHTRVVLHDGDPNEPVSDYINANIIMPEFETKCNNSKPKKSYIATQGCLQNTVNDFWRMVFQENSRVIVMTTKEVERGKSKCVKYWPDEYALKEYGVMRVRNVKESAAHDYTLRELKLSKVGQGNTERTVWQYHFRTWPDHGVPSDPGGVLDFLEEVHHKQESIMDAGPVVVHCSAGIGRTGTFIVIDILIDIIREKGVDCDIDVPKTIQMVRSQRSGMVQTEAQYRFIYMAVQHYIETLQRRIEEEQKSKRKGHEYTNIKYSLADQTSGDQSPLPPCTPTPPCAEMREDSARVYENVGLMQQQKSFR
Protocol: To test whether embelin and SHP2 were reversibly bound, the purified His‐ΔSHP2 fusion protein was dialyzed overnight in dialysis buffer (10 mM HEPES, 0.5 M NaCl, 1 mM TCEP, and 10% glycerol, pH 7.5), and the protein activity was detected by DiFMUP. After incubating embelin with dialyzed protein at 37 °C for 30 min, the mixed solution was dialyzed overnight or ultrafiltered, with DMSO as a control, and protein activity was detected by DiFMUP to determine the mode of protein‐compound binding.

NCI‐H2122 cells = assay: ROS release assay; type: cell-based, human; conditions: 24 h
Protocol: incubated with a horseradish peroxidase (HRP)-conjugated secondary antibody at room
temperature for 2 h and then incubated with enhanced chemiluminescence (ECL) solutions for
15 s at room temperature. A fully automated gel imaging system (General Electric Company,
USA) was used for the exposure imaging.
NCI-H2122 cells were inoculated into 96-well plates specialized for high-content cell
imaging, treated with various drugs, fixed with 4% neutral formaldehyde, and sealed with 5%
BSA after permeabilization with 0.05% Triton X-100. Subsequently, the cells were incubated
with the given primary antibody overnight at 4 °C and then with corresponding fluorescent
secondary antibody in dark at room temperature for 1 h. […] (DAPI)
was applied to nuclear staining. Fluorescence images were captured using a high-content
analyzer (Thermo Scientific, USA).
NCI-H2122 cells treated with the given disposal were digested with trypsin, resuspended
in cold PBS, and centrifuged at room temperature (1000×g for 5 min) to discard the
supernatant. […]
RNaseA) was incubated in dark at 37℃ for 30 min. Red fluorescence and light scattering
were detected by flow cytometry at 488 nm. Cell cycle results were analyzed and visualized […]
intracellular ROS levels were detected by flow cytometry (λa = 488 nm, λe = 525 nm). […]
sealed with a DAPI-containing anti-fluorescence quenching sealer for 30 min at room […]

A549 and NCI‐H2122 cells = assay: Cell invasion assay; type: cell-based, human; conditions: embelin 1 and 2.5 µM; 24 h
Protocol: NCI-H2122 and A549 cells were pre-starved in serum-free medium for 24 h and resuspended in serum-free medium containing 5 mg mL-1 BSA. The cell suspension was added to Transwell chambers at a density of 5×105 mL-1, and RPMI-1640 or Ham F-12K medium containing 10% FBS was added to the bottom of the Transwell chambers.
Subsequently, drugs were added to the chambers and incubated at 37 °C for 48 h and cells were then fixed with 4% neutral formaldehyde for 40 min and stained with 0.1% crystal violet for 60 min. The chamber was washed with triple-distilled water, and images were collected using an inverted microscope. […]
Depending on the molecular weight of the proteins, different concentrations of sodium dodecyl-sulfate polyacrylamide gel electrophoresis (SDS-PAGE) separator gels were prepared for protein electrophoresis. Equal amounts of proteins were sampled and subjected to SDS-PAGE gel electrophoresis; at the end of electrophoresis, the proteins were transferred to nitrocellulose (NC) membranes. The NC membrane was blocked with 5% skim milk and covered with a specific primary antibody overnight at 4 °C, in which the primary antibody was diluted at a ratio of 1:500–1:5000. The NC membrane was […]

[2] = test system: MEK and ERK phosphorylation in NCI‐H2122 and A549 cells; assay: MEK and ERK phosphorylation (western blotting); type: cell-based, human; conditions: 24 h

SMILES | effect on SHP2 phosphorylation [1] | effect on downstream ERK phosphorylation [1] | mode of binding to SHP2 (dialysis) (His‐ΔSHP2) | effect on ROS release (NCI‐H2122 cells) | effect on invasive ability (A549 and NCI‐H2122 cells) | effect on MEK and ERK phosphorylation [2]
CCCCCCCCCCCC1=C(O)C(=O)C=C(O)C1=O [Embelin] | inhibited SHP2 phosphorylation | significantly reduced | noncovalent | promoted ROS release | significantly inhibited the invasive ability | inhibited MEK and ERK phosphorylation
CC1(N)CCN(c2cnc(-c3cccc(Cl)c3Cl)c(N)n2)CC1 [SHP099] | – | – | – | promoted ROS release | significantly inhibited the invasive ability | did not affect MEK phosphorylation in A549 cells
